Experimental data reported in the NIST ThermoML archive (doi:10.1021/je050366x).
Values joined by “and” are separate entries in the source; they are usually repeats but may differ in a detail not shown here. Equal entries are not always repeated. ± gives the expanded uncertainty stated by the source.

Experiment: xn = mol fraction of the nth substance listed
Settings: for surface tension liquid-gas: Ring tensiometer; for mass density: 100 kPa, Liquid

O=C(O)/C=C\C(=O)O [cis-1,4-butenedioic acid] + O
surface tension liquid-gas (278.3 K, x1 = 0.012): 69.9 ± 1.2 mN/m
surface tension liquid-gas (278.7 K, x1 = 0.06): 64.3 ± 1.1 mN/m
surface tension liquid-gas (279.2 K, x1 = 0.012): 69.8 ± 1.2 mN/m
surface tension liquid-gas (280.4 K, x1 = 0.06): 64.4 ± 1.1 mN/m
surface tension liquid-gas (280.5 K, x1 = 0.06): 64.4 ± 1.1 mN/m
surface tension liquid-gas (283.5 K, x1 = 0.012): 69.2 ± 1.1 mN/m
surface tension liquid-gas (283.5 K, x1 = 0.06): 63.7 ± 1.1 mN/m
surface tension liquid-gas (283.7 K, x1 = 0.012): 69.4 ± 1.1 mN/m
surface tension liquid-gas (284.2 K, x1 = 0.06): 64 ± 1.1 mN/m
surface tension liquid-gas (284.7 K, x1 = 0.06): 63.9 ± 1.1 mN/m
surface tension liquid-gas (284.9 K, x1 = 0.06): 63.5 ± 1.1 mN/m
surface tension liquid-gas (287.4 K, x1 = 0.012): 68.7 ± 1.1 mN/m
surface tension liquid-gas (287.9 K, x1 = 0.012): 68.6 ± 1.1 mN/m
surface tension liquid-gas (288.4 K, x1 = 0.06): 63.4 ± 1.1 mN/m
surface tension liquid-gas (288.6 K, x1 = 0.06): 63.6 ± 1.1 mN/m
surface tension liquid-gas (288.8 K, x1 = 0.06): 63.1 ± 1 mN/m
surface tension liquid-gas (289.1 K, x1 = 0.06): 63.2 ± 1.1 mN/m
surface tension liquid-gas (292.8 K, x1 = 0.012): 68 ± 1.1 mN/m and 68.2 ± 1.1 mN/m
surface tension liquid-gas (292.8 K, x1 = 0.06): 62.8 ± 1 mN/m
surface tension liquid-gas (292.9 K, x1 = 0.06): 62.6 ± 1 mN/m
surface tension liquid-gas (293.4 K, x1 = 0.06): 62.9 ± 1 mN/m
surface tension liquid-gas (296.2 K, x1 = 0.06): 62.1 ± 1 mN/m
surface tension liquid-gas (297 K, x1 = 0.012): 67.5 ± 1.1 mN/m
surface tension liquid-gas (297.1 K, x1 = 0.06): 62.4 ± 1 mN/m
surface tension liquid-gas (297.2 K, x1 = 0.012): 67.7 ± 1.1 mN/m
surface tension liquid-gas (297.5 K, x1 = 0.012): 67.6 ± 1.1 mN/m
surface tension liquid-gas (297.7 K, x1 = 0.06): 62.3 ± 1 mN/m
surface tension liquid-gas (298 K, x1 = 0.008): 68 ± 1.1 mN/m
surface tension liquid-gas (298 K, x1 = 0.0116): 67.6 ± 1.1 mN/m
surface tension liquid-gas (298 K, x1 = 0.017): 65.9 ± 1.1 mN/m
surface tension liquid-gas (298 K, x1 = 0.0267): 64.1 ± 1.1 mN/m
surface tension liquid-gas (298 K, x1 = 0.0374): 61.4 ± 1 mN/m
surface tension liquid-gas (298 K, x1 = 0.0376): 61.4 ± 1 mN/m
surface tension liquid-gas (298 K, x1 = 0.0489): 62.2 ± 1 mN/m
surface tension liquid-gas (298 K, x1 = 0.0579): 61.2 ± 1 mN/m
surface tension liquid-gas (298 K, x1 = 0.06): 62.3 ± 1 mN/m
surface tension liquid-gas (298 K, x1 = 0.0627): 60.4 ± 1 mN/m
surface tension liquid-gas (298 K, x1 = 0.0764): 58.8 ± 1 mN/m
surface tension liquid-gas (298 K, x1 = 0.085): 60.3 ± 1 mN/m
surface tension liquid-gas (298 K, x1 = 0.0932): 59.7 ± 1 mN/m
surface tension liquid-gas (298 K, x1 = 0.1083): 59.5 ± 1 mN/m
mass density (298 K, Pycnometric method, x1 = 0.008): 1016 ± 1 kg/m3
mass density (298 K, Pycnometric method, x1 = 0.017): 1031 ± 1 kg/m3
mass density (298 K, Pycnometric method, x1 = 0.027): 1048 ± 1 kg/m3
mass density (298 K, Pycnometric method, x1 = 0.037): 1063 ± 1 kg/m3
mass density (298 K, Pycnometric method, x1 = 0.049): 1084 ± 1 kg/m3
mass density (298 K, Pycnometric method, x1 = 0.062): 1103 ± 1 kg/m3
mass density (298 K, Pycnometric method, x1 = 0.077): 1121 ± 1 kg/m3
mass density (298 K, Pycnometric method, x1 = 0.094): 1135 ± 1 kg/m3
surface tension liquid-gas (300.9 K, x1 = 0.06): 61.4 ± 1 mN/m
surface tension liquid-gas (301.2 K, x1 = 0.06): 61.5 ± 1 mN/m
surface tension liquid-gas (301.6 K, x1 = 0.06): 61.8 ± 1 mN/m
surface tension liquid-gas (302 K, x1 = 0.06): 61.8 ± 1 mN/m
surface tension liquid-gas (302.3 K, x1 = 0.012): 66.9 ± 1.1 mN/m
surface tension liquid-gas (302.7 K, x1 = 0.012): 66.8 ± 1.1 mN/m

O=C(O)CC(O)C(=O)O (stereo unspecified) [hydroxybutanedioic acid] + O
surface tension liquid-gas (279.3 K, x1 = 0.06): 71 mN/m
surface tension liquid-gas (280.5 K, x1 = 0.06): 70.8 mN/m
surface tension liquid-gas (281.3 K, x1 = 0.06): 70.6 mN/m
surface tension liquid-gas (281.7 K, x1 = 0.06): 70.6 mN/m
surface tension liquid-gas (283.6 K, x1 = 0.06): 70.3 mN/m
surface tension liquid-gas (283.7 K, x1 = 0.06): 70.1 mN/m
surface tension liquid-gas (284.6 K, x1 = 0.06): 70.3 mN/m
surface tension liquid-gas (285 K, x1 = 0.06): 70.2 mN/m
surface tension liquid-gas (288.3 K, x1 = 0.06): 69.7 mN/m
surface tension liquid-gas (288.5 K, x1 = 0.06): 69.5 mN/m
surface tension liquid-gas (289.2 K, x1 = 0.06): 69.7 mN/m
surface tension liquid-gas (289.3 K, x1 = 0.06): 69.5 mN/m
surface tension liquid-gas (292.7 K, x1 = 0.06): 68.7 mN/m
surface tension liquid-gas (293.2 K, x1 = 0.06): 68.7 mN/m
surface tension liquid-gas (293.4 K, x1 = 0.06): 69.1 mN/m
surface tension liquid-gas (293.7 K, x1 = 0.06): 68 mN/m
surface tension liquid-gas (297.1 K, x1 = 0.06): 68.2 mN/m
surface tension liquid-gas (297.2 K, x1 = 0.06): 67.9 mN/m
surface tension liquid-gas (297.6 K, x1 = 0.06): 68.4 mN/m
surface tension liquid-gas (297.7 K, x1 = 0.06): 68 mN/m
surface tension liquid-gas (298 K, x1 = 0.003): 70.3 ± 1.2 mN/m
surface tension liquid-gas (298 K, x1 = 0.007): 70.1 ± 1.2 mN/m
surface tension liquid-gas (298 K, x1 = 0.015): 69.8 ± 1.1 mN/m
surface tension liquid-gas (298 K, x1 = 0.023): 69.3 ± 1.1 mN/m
surface tension liquid-gas (298 K, x1 = 0.032): 69.3 ± 1.1 mN/m
surface tension liquid-gas (298 K, x1 = 0.043): 68.4 ± 1.1 mN/m
surface tension liquid-gas (298 K, x1 = 0.054): 68.4 ± 1.1 mN/m
surface tension liquid-gas (298 K, x1 = 0.058): 68.1 ± 1.1 mN/m
surface tension liquid-gas (298 K, x1 = 0.07): 67.8 ± 1.1 mN/m
surface tension liquid-gas (298 K, x1 = 0.082): 67.3 ± 1.1 mN/m
surface tension liquid-gas (298 K, x1 = 0.087): 66.8 ± 1.1 mN/m
mass density (298 K, x1 = 0.003): 1006 ± 2 kg/m3
mass density (298 K, x1 = 0.015): 1037 ± 2 kg/m3
mass density (298 K, x1 = 0.023): 1051 ± 2 kg/m3
mass density (298 K, x1 = 0.032): 1079 ± 2 kg/m3
mass density (298 K, x1 = 0.054): 1115 ± 2 kg/m3
mass density (298 K, x1 = 0.075): 1146 ± 2 kg/m3
mass density (298 K, x1 = 0.096): 1182 ± 2 kg/m3
surface tension liquid-gas (298.2 K, x1 = 0.06): 67.8 mN/m
surface tension liquid-gas (301.9 K, x1 = 0.06): 67.5 mN/m
surface tension liquid-gas (302.1 K, x1 = 0.06): 68.1 mN/m
surface tension liquid-gas (302.3 K, x1 = 0.06): 67.9 mN/m

O=C(O)CCC(=O)O [butanedioic acid] + O
surface tension liquid-gas (279.9 K, x1 = 0.00716): 70 mN/m
surface tension liquid-gas (280.1 K, x1 = 0.00716): 69.2 mN/m
surface tension liquid-gas (280.2 K, x1 = 0.00716): 70.3 mN/m
surface tension liquid-gas (280.6 K, x1 = 0.00716): 70 mN/m
surface tension liquid-gas (284 K, x1 = 0.00716): 69 mN/m
surface tension liquid-gas (284.3 K, x1 = 0.00716): 69.7 mN/m
surface tension liquid-gas (284.7 K, x1 = 0.00716): 69.3 mN/m
surface tension liquid-gas (284.8 K, x1 = 0.00716): 69.5 mN/m
surface tension liquid-gas (285 K, x1 = 0.00716): 69.6 mN/m
surface tension liquid-gas (288.4 K, x1 = 0.00716): 68.6 mN/m
surface tension liquid-gas (288.9 K, x1 = 0.00716): 69 mN/m and 68.8 mN/m and 68.7 mN/m
surface tension liquid-gas (292.6 K, x1 = 0.00716): 67.8 mN/m
surface tension liquid-gas (293.1 K, x1 = 0.00716): 68.5 mN/m
surface tension liquid-gas (293.3 K, x1 = 0.00716): 68.2 mN/m
surface tension liquid-gas (293.4 K, x1 = 0.00716): 68.2 mN/m
surface tension liquid-gas (293.6 K, x1 = 0.00716): 68.4 mN/m
surface tension liquid-gas (296.8 K, x1 = 0.00716): 67.2 mN/m
surface tension liquid-gas (297.4 K, x1 = 0.00716): 67.7 mN/m
surface tension liquid-gas (297.6 K, x1 = 0.00716): 68 mN/m
surface tension liquid-gas (297.8 K, x1 = 0.00716): 67.8 mN/m
surface tension liquid-gas (297.9 K, x1 = 0.00716): 67.8 mN/m
surface tension liquid-gas (298 K, x1 = 0.0011): 70.9 ± 1.2 mN/m
surface tension liquid-gas (298 K, x1 = 0.0022): 70 ± 1.2 mN/m
surface tension liquid-gas (298 K, x1 = 0.0028): 69.8 ± 1.1 mN/m
surface tension liquid-gas (298 K, x1 = 0.0033): 69.4 ± 1.1 mN/m
surface tension liquid-gas (298 K, x1 = 0.0045): 68.9 ± 1.1 mN/m
surface tension liquid-gas (298 K, x1 = 0.0056): 68.5 ± 1.1 mN/m
surface tension liquid-gas (298 K, x1 = 0.0067): 68.1 ± 1.1 mN/m
surface tension liquid-gas (298 K, x1 = 0.0071): 67.7 ± 1.1 mN/m
surface tension liquid-gas (298 K, x1 = 0.0078): 67.6 ± 1.1 mN/m
surface tension liquid-gas (298 K, x1 = 0.0089): 67.3 ± 1.1 mN/m
surface tension liquid-gas (298 K, x1 = 0.01): 66.6 ± 1.1 mN/m
surface tension liquid-gas (298 K, x1 = 0.0107): 66.9 ± 1.1 mN/m
surface tension liquid-gas (298 K, x1 = 0.0111): 66.4 ± 1.1 mN/m
surface tension liquid-gas (298 K, x1 = 0.0117): 66.7 ± 1.1 mN/m
mass density (298 K, x1 = 0.0011): 991 ± 2 kg/m3
mass density (298 K, x1 = 0.0012): 997 ± 2 kg/m3
mass density (298 K, x1 = 0.0022): 993 ± 2 kg/m3 and 1003 ± 2 kg/m3
mass density (298 K, x1 = 0.0028): 996 ± 2 kg/m3
mass density (298 K, x1 = 0.0033): 997 ± 2 kg/m3
mass density (298 K, x1 = 0.0037): 1001 ± 2 kg/m3
mass density (298 K, x1 = 0.0045): 998 ± 2 kg/m3
mass density (298 K, x1 = 0.0047): 1002 ± 2 kg/m3
mass density (298 K, x1 = 0.0056): 1001 ± 2 kg/m3
mass density (298 K, x1 = 0.0067): 1002 ± 2 kg/m3
mass density (298 K, x1 = 0.0068): 1008 ± 2 kg/m3
mass density (298 K, x1 = 0.0078): 1005 ± 2 kg/m3
mass density (298 K, x1 = 0.0089): 1007 ± 2 kg/m3
mass density (298 K, x1 = 0.01): 1009 ± 2 kg/m3
mass density (298 K, x1 = 0.011): 1010 ± 2 kg/m3
surface tension liquid-gas (301.7 K, x1 = 0.00716): 67.5 mN/m
surface tension liquid-gas (301.8 K, x1 = 0.00716): 67.1 mN/m
surface tension liquid-gas (302.3 K, x1 = 0.00716): 67.3 mN/m
surface tension liquid-gas (302.9 K, x1 = 0.00716): 67.1 mN/m
